From article PMC5727165, “A switch in nucleotide affinity governs activation of the Src and Tec family kinases” (Scientific Reports, 2017)

Target: T1, Src^32K (Mus musculus, UniProt P05480)
T1 construct: mouse Src^85-535 (Src^32K); GST (cleaved yes); made in house; host or cells: baculovirus-infected Sf9 insect cells, co-expressed with human Csk
Assay: Competition nucleotide displacement assay (Mant-ADP, fluorescence anisotropy)
Assay type: binding
Conditions: Src^32K (pY527); displacement of Mant-ADP
Procedure: Figure 1 Autoinhibited Itk and Src kinases preferentially bind ADP. (a) Schematic of constructs evaluated in this study. Itk^32K, Src^32K, and Src^32KΔC contain the conserved module of SH3, SH2, and kinase (^32K) domains. Src^32K was truncated by […] to remove its C-terminal tail (inclusive of the Y527 phosphorylation site), generating a construct we refer to as Src^32KΔC (ΔC-tail). (b) Competition nucleotide displacement assay for Itk^32K. 40 μM Itk^32K was incubated with 40 μM Mant-ADP until equilibrium was established. Unlabelled ADP or AMPPNP was titrated into the reaction and fluorescence anisotropy monitored. Comparison of the equilibrium inhibition constants (K i) gives an indication of the relative strength of nucleotide binding. […] (c) Competition nucleotide displacement assay for Src^32K. 40 μM tail-phosphorylated Src^32K (pY527) or doubly phosphorylated Src^32K pY416 (pY527) was incubated with 40 μM Mant-ADP until equilibrium was established. Unlabelled ADP or AMPPNP was titrated into the reaction and fluorescence anisotropy monitored. Solid lines correspond to Src^32K, dashed lines to Src^32K pY416. AMPPNP binds to Src^32K with 20-fold weaker affinity than ADP. […] (d) Omit map showing clear electron density for ADP and a single magnesium ion in the nucleotide-binding pocket of Src. The magnesium is coordinated by Asn391, Asp404, and the α- and β- phosphates of ADP. The β-phosphate is directly coordinated by the guanidinium side chain of Arg388. […]
Since the concentration of ATP in the cell is typically higher than ADP[33],[34], we performed nucleotide competition assays in order to determine which nucleotide is bound in vivo. We measured the concentrations of ADP or AMPPNP required to displace Mant-ADP. […]
The binding constants for ADP and AMPPNP were determined for Src and Itk proteins by fluorescence anisotropy, using 2′/3′-Mant-labelled nucleotides (Jena Bioscience). […] Unlabelled nucleotide was titrated into the reaction and fluorescence anisotropy monitored. The equilibrium inhibition constant for the unlabelled nucleotide was calculated from the fitted curve.

T1 sequence (P05480 85-535): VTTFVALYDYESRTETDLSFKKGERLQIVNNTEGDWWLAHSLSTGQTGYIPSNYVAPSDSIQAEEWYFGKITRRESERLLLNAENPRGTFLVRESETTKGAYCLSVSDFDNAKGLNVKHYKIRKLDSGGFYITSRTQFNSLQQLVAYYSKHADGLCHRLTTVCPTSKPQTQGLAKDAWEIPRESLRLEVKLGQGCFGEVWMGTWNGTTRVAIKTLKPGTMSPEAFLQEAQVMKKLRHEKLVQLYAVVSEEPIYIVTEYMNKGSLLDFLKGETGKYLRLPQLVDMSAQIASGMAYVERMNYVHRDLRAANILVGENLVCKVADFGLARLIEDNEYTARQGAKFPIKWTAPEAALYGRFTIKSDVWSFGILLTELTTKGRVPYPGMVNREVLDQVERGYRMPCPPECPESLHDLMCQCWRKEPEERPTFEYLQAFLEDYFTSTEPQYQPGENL

Nc1ncnc2c1ncn2[C@@H]1O[C@H](COP(=O)(O)OP(=O)(O)O)[C@@H](O)[C@H]1O [ADP]
fold difference in Ki, ADP preferred over AMPPNP: 19 fold
